# Source: patent US8318764B2, “Macrocyclic inhibitors of JAK” (Roche Palo Alto LLC, priority 2009, dated 2012)
# Molecular target: T1, JAK3: Recombinant human kinase domain (810-1124) (Homo sapiens, UniProt P52333)
# T1 construct: Recombinant human kinase domain (810-1124); made in house
# Assay: Determination of IC50 of Janus Kinase (JAK) inhibition, radioactive 33P-ATP end-point assay, JAK3
# Type: biochemical
# Conditions: 0.1 nM JAK3, ATP 1.5 uM, peptide 50 uM, 20 minutes, room temperature; read-out: JAK3 Enzyme IC50
# Protocol: Determination of IC50 of Janus Kinase (JAK) inhibition:
# Enzymes and peptide substrate used are described below:
# JAK3: Recombinant human kinase domain (810-1124) made in house by Roche Palo Alto
# Substrate: N-terminally biotinylated 14-mer peptide derived from activation loop of JAK1 with sequence of the peptide substrate: Biotin-KAIETDKEYYTVKD
# Assay conditions used are described below:
# Assay Buffer: JAK Kinase Buffer: 50 mM Hepes [pH 7.2], 10 mM MgCl2, 1 mM DTT, 1 mg/ml BSA. The assay is carried out in this buffer.
# Assay Format: The kinase activity of all three JAK kinases is measured using a radioactive, end-point assay and with trace amounts of ^33P-ATP. The assays are carried out in 96-well polypropylene plates.
# All concentrations are final in the reaction mixture and all incubations are carried at room temperature. Assay steps are described below:
# 1) Compounds are serially diluted in 100% DMSO typically at a 10× starting concentration of 1 mM. Final concentration of DMSO in the reaction is 10%.
# 2) Compounds are preincubated with enzyme (0.1 nM JAK3, 1 nM JAK2, 5 nM JAK1) for 10 minutes.
# 3) Reactions are initiated by the addition of a cocktail of the two substrates (ATP and peptide premixed in the JAK Kinase Buffer). In the JAK1/JAK2/JAK3 assays, ATP and the peptide are used at concentrations of 1.5 uM and 50 uM, respectively. The duration of the assay for JAK2 and JAK3 is 20 minutes. JAK1 assay is carried out for 45 minutes. With all three enzymes, reactions are terminated by the addition of 0.5M EDTA to a final concentration of 100 mM. 4) 25 ul of terminated reactions are transferred to 150 ul of a 7.5% (v/v) slurry of streptavidin-coated sepharose beads in MgCl2- and CaCl2-free 1× Phosphate Buffered Saline containing 50 mM of EDTA in 96-well, 1.2 um MultiScreen-BV filter plates. 5) After a 30-minute incubation, the beads are washed under vacuum with the following buffers:
# a. 3 to 4 washes with 200 ul of 2M NaCl.
# b. 3 to 4 washes with 200 ul of 2M NaCl plus 1% (v/v) phosphoric acid.
# 6) Washed plates are dried in a 60° C. oven for between 1 to 2 hours.
# 7) 70 ul of Microscint 20 scintillation fluid is added to each well of filter plates and after at least 30 minutes of incubation, radioactive counts are measured in a Perkin Elmer microplate scintillation counter.
# T1 sequence (P52333 810-1124): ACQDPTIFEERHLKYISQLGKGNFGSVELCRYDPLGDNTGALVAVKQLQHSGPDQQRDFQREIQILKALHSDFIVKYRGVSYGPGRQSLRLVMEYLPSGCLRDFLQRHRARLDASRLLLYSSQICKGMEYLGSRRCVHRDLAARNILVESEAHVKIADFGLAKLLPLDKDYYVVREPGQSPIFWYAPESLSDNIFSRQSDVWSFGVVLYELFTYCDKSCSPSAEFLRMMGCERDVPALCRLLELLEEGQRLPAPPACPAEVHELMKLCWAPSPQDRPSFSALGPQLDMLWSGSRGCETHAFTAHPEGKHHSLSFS
row,Structure (SMILES),IC50 [nM]
1,CC1(C)CCCCCc2cc(ccn2)Nc2n[nH]c3c2CN(C3)C1=O [Compound I-3],> 10000
2,O=C1N2Cc3[nH]nc(c3C2)Nc2cccc(n2)CCCCCC12CCCCC2 [Compound I-14],4210
3,CCC1(C)CCCCCCc2cccc(n2)Nc2n[nH]c3c2CN(C3)C1=O (centres unmarked) [Compound I-1],915
4,CC1(c2ccccc2)CCCCCc2cccc(n2)Nc2n[nH]c3c2CN(C3)C1=O (centres unmarked) [Compound I-16],> 1000
5,O=C1N2Cc3[nH]nc(c3C2)Nc2cccc(n2)CCCCCC12CCOCC2 [Compound I-17],> 1000
6,CC1(C)CCCOc2cccc(n2)Nc2n[nH]c3c2CN(C3)C1=O [Compound I-9],> 3000
7,CC1(C)CCCCOc2cccc(n2)Nc2n[nH]c3c2CN(C3)C1=O [Compound I-8],1040

# The next compounds have a lower IC50 than those just listed; values first:
row,IC50 [nM],Structure (SMILES)
1,502,CC1(C)CCCCCc2cccc(n2)Nc2n[nH]c3c2CN(C3)C1=O [Compound I-6]
2,795,CC1CCCCC(C)(C)C(=O)N2Cc3[nH]nc(c3C2)Nc2cccc1n2 (centres unmarked) [Compound I-2]
3,444,O=C1N2Cc3[nH]nc(c3C2)Nc2cccc(n2)CCCCCC12CCCC2 [Compound I-15]
4,280,CCC1(C)CCCCCc2cccc(n2)Nc2n[nH]c3c2CN(C3)C1=O (centres unmarked) [Compound I-4]
5,42.6,CC12CCN(CCCCc3cccc(n3)Nc3n[nH]c4c3CN(C4)C1=O)C2 (centres unmarked) [Compound I-12]
6,487,CC1CCc2cccc(n2)Nc2n[nH]c3c2CN(C3)C(=O)C(C)(C)CC1 (centres unmarked) [Compound I-11]
7,92.8,CC12CCN(CCCc3cccc(n3)Nc3n[nH]c4c3CN(C4)C1=O)C2 (centres unmarked) [Compound I-13]
8,343,CC1(C)CCCCCOc2cccc(n2)Nc2n[nH]c3c2CN(C3)C1=O [Compound I-10]
9,530,CCC1(C)CCCCOc2cccc(n2)Nc2n[nH]c3c2CN(C3)C1=O (centres unmarked) [Compound I-5]
10,811,CC1(C)CCCCc2cccc(n2)Nc2n[nH]c3c2CN(C3)C1=O [Compound I-7]
